The structures appear in SMILES notation.

The format of data set [1] is physicochemical. On the procedure:
Metronidazole (Apo-Metronidazole, Apotex Research Inc.) was prepared by grinding tablets into a powder form and water is added to make a paste. The paste was added to a suitable quantity of nystatin, which was obtained as an aqueous solution from Alimed or PMS PharmaScience (Nilstat™). […] The mouth rinse has a slightly sticky consistency that provides effective contact with the tissues.

Data set [2] has as its system anaerobic gram-negative microorganisms. The conditions noted are these: short-term systemic use, administered orally in humans; cited from earlier work.

For the molecule `Cc1ncc([N+](=O)[O-])n1CCO` [metronidazole], the solubility in water entry in data set [1] is reported as “does not dissolve in water”. The “effect on anaerobic gram-negative microorganisms and periodontal health” value in data set [2] is “sustained reduction of anaerobic gram-negative microorganisms”.

Source of the values: patent US20040253193A1, “Oral rinse for treatment for prevention of bacterial and fungal infection” (priority 2001, published 2004).
